In one assay the target is T1, FXR receptor (Homo sapiens, UniProt Q96RI1).
T1 construct: beta-galactosidase enzyme fragment (EFC/PathHunter); expressed in transfected cells; host or cells: Chinese Hamster Ovary (CHO) cells, stably transfected, clonally derived
T1 sequence (Q96RI1 1-486): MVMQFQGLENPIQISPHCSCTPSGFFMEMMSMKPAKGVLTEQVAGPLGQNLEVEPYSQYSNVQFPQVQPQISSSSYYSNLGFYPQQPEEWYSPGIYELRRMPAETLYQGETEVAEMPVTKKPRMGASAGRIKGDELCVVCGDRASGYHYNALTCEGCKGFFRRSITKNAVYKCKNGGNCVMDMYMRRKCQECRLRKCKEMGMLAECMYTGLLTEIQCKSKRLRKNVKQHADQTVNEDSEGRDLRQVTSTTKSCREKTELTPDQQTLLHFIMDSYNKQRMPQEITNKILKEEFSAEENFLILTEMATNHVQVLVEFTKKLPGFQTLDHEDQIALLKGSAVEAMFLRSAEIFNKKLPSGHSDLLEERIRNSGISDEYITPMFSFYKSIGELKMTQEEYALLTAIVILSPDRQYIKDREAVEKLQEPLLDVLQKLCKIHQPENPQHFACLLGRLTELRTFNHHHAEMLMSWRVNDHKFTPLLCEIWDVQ
As to the kind of experiment: In vitro FXR activity, PathHunter enzyme fragment complementation assay in CHO cells. It is filed as cell-based. To be noted: for EC50: CHO PathHunter cells, ten-point dose curve, chemiluminescence; for Emax: CHO, read-out: Max Response (%). How it is done:
Cells were seeded in cell plating reagent in a total volume of 20 μL into 384-well microplates and incubated at 37° C., 5% CO2 humidified incubator for 24 or 48 hours prior to testing. FXR agonists were dissolved in DMSO (dimethyl sulfoxide). Ligands were subsequently diluted in the cell plating reagent to make up desired concentration stock solution. Ten-point dose curve serial dilutions were prepared in cell plating reagent. 5 μL of 5× sample was added to cells and incubated at 37° C. or room temperature for 3-16 hours. Final assay vehicle concentration was 1%. Chemiluminescent signals were generated through addition of 12.5 μL or 15 μL of detection reagent cocktail ([…]), followed by incubation at room temperature for 1 hour. Microplates were read for signal generation using a PerkinElmer Envision instrument to detect chemiluminescence. The percentage activity was calculated using the following formula: % Activity=100%×(mean RLU of test sample−mean RLU of vehicle control)/(mean MAX control ligand−mean RLU of vehicle control).

In assay [1] the test system is diet-induced NASH mice. As to the kind of experiment: Example 7: diet-induced (GAN diet) NASH mice, Compound 2, FXR agonists and combinations. Type of assay: in vivo. To be noted: for plasma TG levels compared to vehicle: day 21, FIG. 11; for total liver triglycerides compared to tropifexor: day 21, FIG. 12; for plasma insulin level, significance compared to vehicle / plasma insulin levels compared to vehicle alone and to Compound 2: study day 21, FIG. 9; for plasma ALT level compared to vehicle alone / plasma ALT levels compared to tropifexor: study day 21, FIG. 10; for blood glucose level compared to vehicle: FIG. 6; for liver TG levels at the termination of the study: FIG. 8; for plasma triglyceride (TG) levels: as early as seven days, FIG. 7; for relative terminal body weight compared to vehicle: study day 21, FIG. 5. The method, then:
NASH was induced in mice by feeding mice a Gubra amylin NASH (GAN) diet as described in Boland et al. World J Gastroenterol. 2019, 25(33): 4904-4920. One week prior to administration of a first dose of compounds, the mice were weighed and randomized, and their food intake was measured. Mice were randomly assigned to dosing groups, with 12 mice per group. Assigned dosages included the following; Compound 2 (10 mg/kg); tropifexor (0.3 mg/kg); Compound 2 (10 mg/kg)+tropifexor (0.3 mg/kg); Compound II-1 (10 mg/kg); Compound 2 (10 mg/kg)+Compound II-1 (30 mg/kg); Compound II-2 (10 mg/kg); and Compound 2 (10 mg/kg)+Compound II-2 (30 mg/kg). One group was mock treated with vehicle only as a control. Dosage of Compound II-1 and Compound II-2 were titrated over 6 days, with a dosage of 3 mg/kg administered on days 0, 1 and 2 and a dosage of 10 mg/kg administered on days 3, 4, and 5. Absolute and relative body weight of the mice were recorded daily.
(§1) Fed blood glucose and fed plasma levels of alanine transaminase (ALT) aspartate transaminase (AST), triglycerides (TG), and total cholesterol (TC) were measured at days 7, 14, 21.
After 3 weeks, animals were sacrificed. Plasma enzymes (P-ALT (alanine aminotransferase) and P-AST (aspartate aminotransferase)), total plasma triglycerides, and total plasma cholesterol were measured, and terminal necropsy of each liver was carried out, determining relative liver weight as a percentage of body weight, assaying total liver biochemistry including total liver triglycerides, plasma insulin and total liver cholesterol, as well as histological evaluation of total liver hydroxyproline, and steatosis. Tissue samples were preserved for characterization using RNAseq.

Assay [2] relates to diet-induced NASH mice. The assay can be described thus: Example 6: diet-induced (GAN diet) NASH mice, FXR agonists alone. It is filed as in vivo. To be noted: 10 mg/kg; for blood glucose level compared to vehicle: FIG. 2; for plasma triglyceride (TG) levels compared to vehicle: as early as seven days, FIG. 3; for total liver triglycerides: over the course of the study, FIG. 4; for relative terminal body weight compared to vehicle: study day 21, FIG. 1; for liver TG lowering compared to tropifexor: II-1 p<0.05, II-2 p<0.01. The method, then:
NASH was induced in mice by feeding mice a Gubra amylin NASH (GAN) diet as described in Boland et al. World J Gastroenterol. 2019, 25(33): 4904-4920. One week prior to administration of a first dose of compounds, the mice were weighed and randomized, and their food intake was measured. Mice were randomly assigned to dosing groups, with 12 mice per group. Assigned dosages were: Compound II-1 (10 mg/kg); Compound II-2 (10 mg/kg) One group was mock treated with vehicle only as a control. Dosage of Compound II-1 and Compound II-2 were titrated over 3 days, with a dosage of 3 mg/kg administered on days 0, 1 and 2. Dosage of tropifexor was titrated over 2 days, with a dosage of 0.1 mg/kg administered on days 0 and 1. Absolute and relative body weight of the mice were recorded daily.
as §1
After 8 weeks, animals were sacrificed. Plasma enzymes (P-ALT (alanine aminotransferase) and P-AST (aspartate aminotransferase)), total plasma triglycerides, and total plasma cholesterol were measured, and terminal necropsy of each liver was carried out, determining relative liver weight as a percentage of body weight, assaying total liver biochemistry including total liver triglycerides, plasma insulin and total liver cholesterol, as well as histological evaluation of total liver hydroxyproline, and steatosis. Tissue samples were preserved for characterization using RNAseq.

[3] abbreviates: % Activity relative to MAX control ligand.

Take `Oc1cc(-c2cc(F)c3nc(N4[C@@H]5CC[C@H]4CC(OCc4c(-c6ccccc6OC(F)(F)F)noc4C4CC4)C5)sc3c2)on1` (stereo partly drawn) [Compound II-3, 5-(2-((1R,5S)-3-((5-cyclopropyl-3-(2-(trifluoromethoxy)phenyl)isoxazol-4-yl)methoxy)-8-azabicyclo[3.2.1]octan-8-yl)-4-fluorobenzo[d]thiazol-6-yl)isoxazol-3-ol]: the EC50 (usually the concentration at which the effect is half-maximal) at FXR receptor worked out at 24.6 nM. The Emax at FXR receptor (setting [3]) is 151%. In the assay on diet-induced NASH mice [1], the “plasma TG levels compared to vehicle” value is given as “significant reduction of plasma TG levels”; the “total liver triglycerides compared to tropifexor” value is recorded as “reduced total liver triglycerides than tropifexor”; the “plasma insulin level, significance compared to vehicle” value was “statistically significant reduction of plasma insulin level”; the “plasma insulin levels compared to vehicle alone and to Compound 2” value was “lower insulin levels”. Moreover, in the assay with diet-induced NASH mice [1], the “plasma ALT level compared to vehicle alone” value is on record as “lower plasma ALT level” and the “plasma ALT levels compared to tropifexor” value is “lower plasma ALT levels”.
`Cc1cc(OCP2(=O)OCC[C@@H](c3cccc(Cl)c3)O2)cc(C)c1Cc1ccc(O)c(C(C)C)c1` (stereo partly drawn) [Compound 2]: in the assay on diet-induced NASH mice [1], the “blood glucose level compared to vehicle” value is given as “lower blood glucose level”, the “liver TG levels at the termination of the study” value (from here on “liver TG levels”) is reported as “lowered liver TG levels”, the “plasma triglyceride (TG) levels” value is reported as “significantly reduced” and the “relative terminal body weight compared to vehicle” value (“relative terminal body weight” below) is reported as “lower relative terminal body weight”.
On to `Oc1cc(-c2cc(F)c3nc(N4[C@@H]5CC[C@H]4CC(OCc4c(-c6ccccc6OC(F)(F)F)noc4C4CC4)C5)sc3c2)no1` (stereo partly drawn) [Compound II-4, 3-(2-((1R,5S)-3-((5-cyclopropyl-3-(2-(trifluoromethoxy)phenyl)isoxazol-4-yl)methoxy)-8-azabicyclo[3.2.1]octan-8-yl)-4-fluorobenzo[d]thiazol-6-yl)isoxazol-5-ol], for which, on FXR receptor, it took 81.1 nM to reach a half-maximal effect (EC50). Moreover, the Emax at FXR receptor (setting [3]) came to 159%. For the same compound, in the assay on diet-induced NASH mice [1], the “plasma TG levels compared to vehicle” value is reported as “significant reduction of plasma TG levels”; the “total liver triglycerides compared to tropifexor” value is reported as “reduced total liver triglycerides than tropifexor”; the “plasma insulin levels compared to vehicle alone and to Compound 2” value was “lower insulin levels”; the “plasma ALT level compared to vehicle alone” value is recorded as “lower plasma ALT level”. Besides, the “plasma ALT levels compared to tropifexor” value with diet-induced NASH mice [1] was “lower plasma ALT levels”.
Regarding `CP(=O)(O)c1cc(F)c2nc(N3[C@@H]4CC[C@H]3CC(OCc3c(-c5ccccc5OC(F)(F)F)noc3C3CC3)C4)sc2c1` (stereo partly drawn) [Compound II-2], the “Max Response (%)” value at FXR receptor (setting [3]) came out at 90%. Besides, a half-maximal effect on FXR receptor (EC50) was put at 3080 nM. Besides, in the assay with diet-induced NASH mice [2], the “blood glucose level compared to vehicle” value is on record as “lower blood glucose level”, the “plasma triglyceride (TG) levels compared to vehicle” value is listed as “significantly reduced”, the total liver triglycerides result is on record as “similarly decreased” and the “relative terminal body weight” value is given as “lower relative terminal body weight”. In addition, the “liver TG lowering compared to tropifexor” value in the assay on diet-induced NASH mice [2] is “greater efficacy in lowering liver TG levels”. For the same compound, the “plasma TG lowering compared to tropifexor” value in the assay with diet-induced NASH mice [2] (p<0.05) is reported as “greater efficacy in lowering plasma TG levels”. In the assay on diet-induced NASH mice [1], the “blood glucose level compared to vehicle” value was “lower blood glucose level”, the “liver TG levels” value is “lowered liver TG levels”, the “plasma triglyceride (TG) levels” value is on record as “significantly reduced” and the “plasma TG levels compared to vehicle” value is on record as “significant reduction of plasma TG levels”. For the same compound, in the assay with diet-induced NASH mice [1], the “total liver triglycerides compared to tropifexor” value is “reduced total liver triglycerides than tropifexor”; the “relative terminal body weight” value was “lower relative terminal body weight”; the “plasma insulin level, significance compared to vehicle” value was “statistically significant reduction of plasma insulin level”; the “plasma insulin levels compared to vehicle alone and to Compound 2” value was “lower insulin levels”. Besides, in the assay with diet-induced NASH mice [1], the “plasma ALT level compared to vehicle alone” value was “lower plasma ALT level” and the “plasma ALT levels compared to tropifexor” value is recorded as “lower plasma ALT levels”.
In the case of `O=P(O)(O)c1cc(F)c2nc(N3[C@@H]4CC[C@H]3CC(OCc3c(-c5ccccc5OC(F)(F)F)noc3C3CC3)C4)sc2c1` (stereo partly drawn) [Compound II-1, (2-((1R,5S)-3-((5-cyclopropyl-3-(2-(trifluoromethoxy)phenyl)isoxazol-4-yl)methoxy)-8-azabicyclo[3.2.1]octan-8-yl)-4-fluorobenzo[d]thiazol-6-yl)phosphonic acid], a half-maximal effect at FXR receptor (EC50) was put at 2860 nM. The Emax at FXR receptor (setting [3]) was 52%. In the assay with diet-induced NASH mice [2], the “blood glucose level compared to vehicle” value is “lower blood glucose level”, the “plasma triglyceride (TG) levels compared to vehicle” value was “significantly reduced”, the total liver triglycerides result is given as “similarly decreased” and the “relative terminal body weight” value is recorded as “lower relative terminal body weight”. The “liver TG lowering compared to tropifexor” value with diet-induced NASH mice [2] is listed as “greater efficacy in lowering liver TG levels”. In the assay with diet-induced NASH mice [1], the “blood glucose level compared to vehicle” value was “lower blood glucose level”, the “liver TG levels” value is “lowered liver TG levels”, the “plasma triglyceride (TG) levels” value is on record as “significantly reduced” and the “plasma TG levels compared to vehicle” value is listed as “significant reduction of plasma TG levels”. In addition, in the assay on diet-induced NASH mice [1], the “total liver triglycerides compared to tropifexor” value was “reduced total liver triglycerides than tropifexor”; the “relative terminal body weight” value is on record as “lower relative terminal body weight”; the “plasma insulin level, significance compared to vehicle” value is “statistically significant reduction of plasma insulin level”; the “plasma insulin levels compared to vehicle alone and to Compound 2” value is given as “lower insulin levels”. Besides, in the assay on diet-induced NASH mice [1], the “plasma ALT level compared to vehicle alone” value is recorded as “lower plasma ALT level” and the “plasma ALT levels compared to tropifexor” value is reported as “lower plasma ALT levels”.

The values are drawn from patent publication US12678430B2, “Compositions and methods for the treatment of liver disorders” (Viking Therapeutics, Inc., priority 2020, dated 2026).
